Laboratory results from paper PMC5526551, “New hydrazonoindolin-2-ones: Synthesis, exploration of the possible anti-proliferative mechanism of action and encapsulation into PLGA microspheres” (PLoS ONE, 2017).
Where two headings read alike, the source gives them in different places.

What was measured:
A549 = assay: Anti-proliferative activity, cell growth inhibition (CellTiterGlo, 72 h); assay type: cell-based, human; conditions: for inhibition at 30 µM: A549, read-out: Cell growth inhibitory activity, A-549; for IC50: read-out: IC50 A-549
Description: (§1) Twenty compounds, i.e. 4a-o and 7a-e, were analyzed for cancer cell growth inhibitory activity. These studies were carried out using cells derived from human lung, colon and breast tumors (A549, HT-29 and ZR-75 cells, respectively). This initial assessment of activity tested each compound in quadruplicate at a single concentration of 30 μM, if solubility permitted.
(§2) A549, HT-29, ZR-75 were obtained from the American Type Culture Collection (ATCC). Cells were harvested from 90-95% confluent 10 cm dishes, and diluted in growth media (RPMI-1640 supplemented with 5% fetal bovine serum). An appropriate concentration of cells were prepared to add 1,250 cells in a volume of 25 µL per well in tissue culture treated Griener 384-well microplates, then incubated overnight at 37°C. Compound 7e was diluted to a concentration of 30 µM in DMSO. Concentrated dosing solutions of twice the final concentration were prepared by dilution of the DMSO stocks 1:500 in growth media. Two-fold serial dilutions were then prepared in medium containing 0.2% DMSO to maintain a constant concentration of vehicle throughout the concentration range of the compound. Each of these was added in an equal volume (25 µL) to four wells on each cell assay plate, along with the vehicle control. The highest concentration for serial dilutions of the positive control (sunitinib) was prepared exactly as the experimental compound 7e. Cells were incubated with the compounds for a further 72 h.
(§3) At the end of the treatment period, assay plates were allowed to cool to RT for 10 min prior to the addition of 25 µL per well Promega CellTiterGlo reagent, followed by additional 10 min incubation at RT. The resulting luminescence was quantitated using a Molecular Devices Spectramax Paradigm.
(§4) Percent growth inhibition was calculated as follows, where 100 represents the viability of vehicle treated control samples:
(§5) The potency of compounds was determined using the non-linear dose response algorithm (four-parameter logistic fit) with GraphPad Prism 5 software.

HT-29 = assay: as above; assay type: cell-based, human; conditions: for inhibition at 30 µM: HT-29, read-out: Cell growth inhibitory activity, HT-29; for IC50: 72 h
Description: as §1, §2, §3, §4, §5

ZR-75 = assay: as above; assay type: cell-based, human; conditions: for inhibition at 30 µM: ZR75, read-out: Cell growth inhibitory activity, ZR-75
Description: as §1, §2, §3, §4, §5

[1] = system: HT-29, ZR-75 and A-549 cell lines; assay: Average anti-proliferative activity over the three cancer cell lines; assay type: cell-based, human; conditions: average of HT-29, ZR-75, A-549; for inhibition at 30 µM: read-out: Average Growth Inhibition %; for inhibition at 30 µM / Average Growth Inhibition %: 30 μM
Description: as §1
Therefore, they were subjected to quantitative inhibitory concentration 50% (IC50) determination for their cell growth inhibitory activity towards the A549, HT-29 and ZR-75 cancer cell lines.
as §2, §5

NCI cell lines = system: NCI cell lines; design: method as in PMID 17073710, PMID 16860559; conditions: against 46 out of 53 NCI cell lines; cited from earlier work
[2] = system: cyclin-dependent kinases (CDKs); conditions: read-out: IC50 CDKs; binding to the ATP pocket; cited from earlier work
[3] = target: glycogen synthase kinase 3 beta (GSK-3β); conditions: read-out: IC50 GSK-3β; binding to the ATP pocket; cited from earlier work
[4] = Homo sapiens, 30 μM, quadruplicate

`COc1ccc(C=NN=C2C(=O)Nc3ccc(Br)cc32)cc1OC` [Compound 4n, 5-Bromo-3-((3,4-dimethoxybenzylidene)hydrazono)indolin-2-one] showed an inhibition at 30 µM (A549; [4]) of 0.1 ± 5.1%, an inhibition at 30 µM (HT-29; [4]) of -2 ± 10.2% and an inhibition at 30 µM (ZR-75; [4]) of 12.5 ± 21.9%. For the same compound, the inhibition at 30 µM ([1]; Homo sapiens) was 3.5% and the melting point was 280 to 282 °C.
`COc1ccc(C=NN=C2C(=O)Nc3ccc(Br)cc32)cc1` [Compound 4k, 5-Bromo-3-((4-methoxybenzylidene)hydrazono)indolin-2-one] showed an inhibition at 30 µM (A549; [4]) of -6.9 ± 9.4%, an inhibition at 30 µM (HT-29; [4]) of -0.6 ± 7.2% and an inhibition at 30 µM (ZR-75; [4]) of -5.3 ± 18.1%. For the same compound, the “Average Growth Inhibition %” value [1] was “stimulated the growth”, the inhibition at 30 µM ([1]; Homo sapiens) was -4.3% and the melting point was 290 to 292 °C.
In the case of `COc1ccc(C=NN=C2C(=O)Nc3ccc(Cl)cc32)cc1` [Compound 4f, 5-Chloro-3-((4-methoxybenzylidene)hydrazono)indolin-2-one], the inhibition at 30 µM (A549; [4]) is reported as 8.4 ± 10%, the inhibition at 30 µM (HT-29; [4]) is reported as 6.1 ± 8.6% and the inhibition at 30 µM (ZR-75; [4]) is reported as 10.9 ± 14%. It also gave an inhibition at 30 µM ([1]; Homo sapiens) of 8.4% and a melting point of 282 to 284 °C.
For `COc1cc(C=NN=C2C(=O)Nc3ccc(Cl)cc32)cc(OC)c1OC` [Compound 4j, 5-Chloro-3-((3,4,5-trimethoxybenzylidene)hydrazono)indolin-2-one], the inhibition at 30 µM (A549; [4]) was 1.7 ± 17.5%, the inhibition at 30 µM (HT-29; [4]) was 6.9 ± 4.2% and the inhibition at 30 µM (ZR-75; [4]) was 18.1 ± 21.2%. It also gave an inhibition at 30 µM ([1]; Homo sapiens) of 8.9% and a melting point of 245 to 247 °C.
With `CN1C(=O)C(=NN=C2C(=O)Nc3ccc(Cl)cc32)c2ccccc21` [Compound 7b, 5-Chloro-3-((methyl-2-oxoindolin-3-ylidene)hydrazono)indolin-2-one] the “Cell growth inhibitory activity, A-549” value (A549; 30 μM, quadruplicate) was 95.2 ± 2.8%, the IC50 (A549; 72 h) was 5.19 µM and the “Cell growth inhibitory activity, HT-29” value (HT-29; 30 μM, quadruplicate) was 95.5 ± 3.4%. For the same compound, the IC50 (HT-29) was 5.38 µM, the “Cell growth inhibitory activity, ZR-75” value (ZR-75; 30 μM, quadruplicate) was 95.5 ± 6.0% and the IC50 (ZR-75; 72 h) was 3.75 µM. The “Average Growth Inhibition %” value [1] was 95.4% and the IC50 [1] was 4.77 µM.
In the case of `COc1ccc(C=NN=C2C(=O)Nc3ccccc32)cc1O` [Compound 4b, 3-((3-Hydroxy-4-methoxybenzylidene)hydrazono)indolin-2-one], the inhibition at 30 µM (A549; [4]) is reported as 66.3 ± 5.7%, the inhibition at 30 µM (HT-29; [4]) is reported as 81.9 ± 3% and the inhibition at 30 µM (ZR-75; [4]) is reported as 59.3 ± 11.1%. It also gave an inhibition at 30 µM ([1]; Homo sapiens) of 69.2% and a melting point of 273 to 275 °C.
`COc1ccc(C=NN=C2C(=O)Nc3ccc(Br)cc32)cc1O` [Compound 4l, 5-Bromo-3-((3-hydroxy-4-methoxybenzylidene)hydrazono)indolin-2-one] showed an inhibition at 30 µM (A549; [4]) of 46.6 ± 9.5%, an inhibition at 30 µM (HT-29; [4]) of 45.9 ± 9.8% and an inhibition at 30 µM (ZR-75; [4]) of 44.3 ± 18.4%. For the same compound, the inhibition at 30 µM ([1]; Homo sapiens) was 45.6% and the melting point was 278 to 280 °C.
For `O=C1Nc2ccc(Cl)cc2C1=NN=C1C(=O)N(Cc2ccccc2)c2ccccc21` [Compound 7d, 1-Benzyl-3-((5-chloro-2-oxoindolin-3-ylidene)hydrazono)indolin-2-one], the IC50 (A549; Homo sapiens, A549, 72 h) was 4.13 µM, the inhibition at 30 µM (A549; [4]) was 98.4 ± 0.6% and the IC50 (HT-29) was 3.62 µM. For the same compound, the IC50 (HT-29; Homo sapiens, HT-29, 72 h) was 3.82 µM, the inhibition at 30 µM (HT-29; [4]) was 97 ± 1.8% and the IC50 (ZR-75; Homo sapiens, ZR75, 72 h) was 2.42 µM. For the same compound, the inhibition at 30 µM (ZR-75; [4]) was 97.8 ± 1.8%, the inhibition at 30 µM ([1]; Homo sapiens) was 97.7% and the IC50 ([1]; Homo sapiens) was 3.39 µM. It also gave a melting point of 258 to 260 °C.
In the case of `Cc1cc(C)c(/C=C2\C(=O)Nc3ccccc32)[nH]1` [Semaxanib], the GI50 (NCI cell lines) is given as less than 0.01 µM.
With `COc1cc(C=NN=C2C(=O)Nc3ccccc32)ccc1O` [Compound 4c, 3-((4-Hydroxy-3-methoxybenzylidene)hydrazono)indolin-2-one] the inhibition at 30 µM (A549; [4]) was 54.2 ± 5%, the inhibition at 30 µM (HT-29; [4]) was 74.9 ± 5.3% and the inhibition at 30 µM (ZR-75; [4]) was 55.4 ± 23.4%. The inhibition at 30 µM ([1]; Homo sapiens) was 61.5%.
`COc1ccc(C=NN=C2C(=O)Nc3ccc(Cl)cc32)cc1O` [Compound 4g, 5-Chloro-3-((3-hydroxy-4-methoxybenzylidene)hydrazono)indolin-2-one] showed an inhibition at 30 µM (A549; [4]) of 44.2 ± 16.5%, an inhibition at 30 µM (HT-29; [4]) of 33.5 ± 11.3% and an inhibition at 30 µM (ZR-75; [4]) of 46 ± 6.4%. It also gave an inhibition at 30 µM ([1]; Homo sapiens) of 41.2% and a melting point of 278 to 280 °C.
For `COc1cc(C=NN=C2C(=O)Nc3ccc(Br)cc32)ccc1O` [Compound 4m, 5-Bromo-3-((4-hydroxy-3-methoxybenzylidene)hydrazono)indolin-2-one], the inhibition at 30 µM (A549; [4]) was 83.7 ± 10.3%, the inhibition at 30 µM (HT-29; [4]) was 42.1 ± 1.8% and the inhibition at 30 µM (ZR-75; [4]) was 58.7 ± 16%. The inhibition at 30 µM ([1]; Homo sapiens) was 61.5% and the melting point was 285 to 287 °C.
In the case of `COc1ccc(C=NN=C2C(=O)Nc3ccccc32)cc1OC` [Compound 4d, 3-((3,4-Dimethoxybenzylidene)hydrazono)indolin-2-one], the inhibition at 30 µM (A549; [4]) is reported as 82.5 ± 6.9%, the inhibition at 30 µM (HT-29; [4]) is reported as 81.7 ± 5.2% and the inhibition at 30 µM (ZR-75; [4]) is reported as 58.8 ± 4.3%. The inhibition at 30 µM ([1]; Homo sapiens) was 74.3% and the melting point was 276 to 278 °C.
Work on `O=C1Nc2ccccc2C1=NN=C1C(=O)N(Cc2ccccc2)c2ccccc21` [Compound 7c, 1-Benzyl-3-((oxoindolin-3-ylidene)hydrazono)indolin-2-one] yielded an inhibition at 30 µM (A549; [4]) of 86.6 ± 9.9%, an inhibition at 30 µM (HT-29; [4]) of 73.8 ± 4.4% and an inhibition at 30 µM (ZR-75; [4]) of 92.1 ± 3.8%. For the same compound, the inhibition at 30 µM ([1]; Homo sapiens) was 84.2% and the melting point was 255 to 257 °C.
With `COc1cc(C=NN=C2C(=O)Nc3ccc(Cl)cc32)ccc1O` [Compound 4h, 5-Chloro-3-((4-hydroxy-3-methoxybenzylidene)hydrazono)indolin-2-one] the inhibition at 30 µM (A549; [4]) was 37.3 ± 8.1%, the inhibition at 30 µM (HT-29; [4]) was 41.6 ± 10.4% and the inhibition at 30 µM (ZR-75; [4]) was 30.9 ± 9.5%. It also gave an inhibition at 30 µM ([1]; Homo sapiens) of 36.6% and a melting point of 269 to 271 °C.
For `COc1ccc(C=NN=C2C(=O)Nc3ccc(Cl)cc32)cc1OC` [Compound 4i, 5-Chloro-3-((3,4-dimethoxybenzylidene)hydrazono)indolin-2-one], the inhibition at 30 µM (A549; [4]) was 4.9 ± 3.3%, the inhibition at 30 µM (HT-29; [4]) was -3.6 ± 9.7% and the inhibition at 30 µM (ZR-75; [4]) was 33 ± 13%. The inhibition at 30 µM ([1]; Homo sapiens) was 11.4% and the melting point was 282 to 284 °C.
`COc1ccc(C=NN=C2C(=O)Nc3ccccc32)cc1` [Compound 4a, 3-((4-Methoxybenzylidene)hydrazono)indolin-2-one] gave an inhibition at 30 µM (A549; [4]) of 27.1 ± 20.3%, an inhibition at 30 µM (HT-29; [4]) of 19.5 ± 12.4% and an inhibition at 30 µM (ZR-75; [4]) of 34.8 ± 23.7%. It also gave an inhibition at 30 µM ([1]; Homo sapiens) of 27.2% and a melting point of 277 to 279 °C.
For `O=C1Nc2ccccc2/C1=C1/Nc2ccccc2C1=O` [indirubin, Indirubin], the IC50 [2] is listed as 75 µM and the IC50 [3] is listed as […].
For `COc1cc(C=NN=C2C(=O)Nc3ccccc32)cc(OC)c1OC` [Compound 4e, 3-((3,4,5-Trimethoxybenzylidene)hydrazono)indolin-2-one], the inhibition at 30 µM (A549; [4]) was 93.6 ± 3.6%, the inhibition at 30 µM (HT-29; [4]) was 81.9 ± 5.4% and the inhibition at 30 µM (ZR-75; [4]) was 86.1 ± 3.8%. It also gave an inhibition at 30 µM ([1]; Homo sapiens) of 87.2% and a melting point of 240 to 241 °C.
Compound `COc1cc(C=NN=C2C(=O)Nc3ccc(Br)cc32)cc(OC)c1OC` [Compound 4o, 5-Bromo-3-((3,4,5-trimethoxybenzylidene)hydrazono)indolin-2-one] has an inhibition at 30 µM (A549; [4]) of -3.4 ± 6.6%, an inhibition at 30 µM (HT-29; [4]) of -1.1 ± 9% and an inhibition at 30 µM (ZR-75; [4]) of 3.1 ± 8.2%. The “Average Growth Inhibition %” value [1] was “stimulated the growth”, the inhibition at 30 µM ([1]; Homo sapiens) was -0.5% and the melting point was 261 to 263 °C.
`CN1C(=O)C(=NN=C2C(=O)Nc3ccc(F)cc32)c2ccccc21` [Compound 7a, 5-Fluoro-3-((1-methyl-2-oxoindolin-3-ylidene)hydrazono)indolin-2-one] showed an inhibition at 30 µM (A549; [4]) of 91.6 ± 4.8%, an inhibition at 30 µM (HT-29; [4]) of 84.8 ± 3.6% and an inhibition at 30 µM (ZR-75; [4]) of 78.6 ± 9.9%. The inhibition at 30 µM ([1]; Homo sapiens) was 85% and the melting point was 295 to 297 °C.
